{"source": "patent US20160333419A1", "about": "“GENE SIGNATURES ASSOCIATED WITH SENSITIVITY TO MDM2 INHIBITORS” (DAIICHI SANKYO COMPANY, LIMITED, priority 2014, published 2016)", "assay_in_all_cases": "OncoPanel cytotoxicity assay", "assay_type_in_all_cases": "cell-based", "key": {"VCaP": {"system": "VCaP", "conditions": "Homo sapiens, 72 hour incubation", "how_it_was_run": "(§1)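 Cells grown in RPMI 1640 with 10% FBS (or a special medium) at 37° C, 5% CO2 were treated 24 hours after seeding for 72 hours with 10 concentrations (3.16-fold dilutions, 0.1% DMSO final). Nuclei were dye-stained and imaged; IC50 was fit from percent of control relative cell count.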"}, "CRO-AP5": {"system": "CRO-AP5", "conditions": "Homo sapiens, 72 hour incubation", "how_it_was_run": "as §1"}, "CAL-54": {"system": "CAL-54", "conditions": "Homo sapiens, 72 hour incubation", "how_it_was_run": "as §1"}, "BT-483": {"system": "BT-483", "conditions": "Homo sapiens, 72 hour incubation", "how_it_was_run": "as §1"}, "OE21": {"system": "OE21", "conditions": "Homo sapiens, 72 hour incubation", "how_it_was_run": "as §1"}, "COR-L23": {"system": "COR-L23", "conditions": "Homo sapiens, 72 hour incubation", "how_it_was_run": "as §1"}, "NCI-H69": {"system": "NCI-H69", "conditions": "Homo sapiens, 72 hour incubation", "how_it_was_run": "as §1"}, "OE19": {"system": "OE19", "conditions": "Homo sapiens, 72 hour incubation", "how_it_was_run": "as §1"}, "DMS273": {"system": "DMS273", "conditions": "Homo sapiens, DMS-273, 72 hour incubation", "how_it_was_run": "as §1"}}, "note": "pIC50: −log10 of the molar value.", "data": [{"smiles": "CC[C@@H]1CNC2(CC2)CN1C(=O)[C@@H]1C[C@@H](F)CN1C(=O)C1=C(C(C)C)N2C(=N[C@@](C)(c3ccc(Cl)nc3)[C@H]2c2ccc(Cl)c(F)c2)S1", "note": "[Compound A, [(5R,6S)-5-(4-Chloro-3-fluorophenyl)-6-(6-chloropyridin-3-yl)-6-methyl-3-(propan-2-yl)-5,6-dihydroimidazo[2,1-b][1,3]thiazol-2-yl][(2S,4R)-2-{[(6R)-6-ethyl-4,7-diazaspiro[2.5]oct-7-yl]carbonyl}-4-fluoropyrrolidin-1-yl]methanone]", "values": [{"measurement": "pIC50", "setting": "VCaP", "value": "< 4.40"}, {"measurement": "pIC50", "setting": "CRO-AP5", "value": 6.66}, {"measurement": "pIC50", "setting": "CAL-54", "value": 6.22}, {"measurement": "pIC50", "setting": "BT-483", "value": 4.88}]}, {"smiles": "CC1(C)CCC2(CC1)N[C@@H](C(=O)N[C@@H]1CC[C@@H](C(N)=O)OC1)[C@H](c1ccnc(Cl)c1F)[C@]21C(=O)Nc2cc(Cl)ccc21", "note": "[Compound B, (3′R,4′S,5′R)—N-[(3R,6S)-6-carbamoyltetrahydro-2H-pyran-3-yl]-6″-chloro-4′-(2-chloro-3-fluoropyridin-4-yl)-4,4-dimethyl-2″-oxo-1″,2″-dihydrodispiro[cyclohexane-1,2′-pyrrolidine-3′,3″-indole]-5′-carboxamide]", "values": [{"measurement": "pIC50", "setting": "OE21", "value": 5.01}, {"measurement": "pIC50", "setting": "COR-L23", "value": 5.05}, {"measurement": "pIC50", "setting": "NCI-H69", "value": "< 5.00"}, {"measurement": "pIC50", "setting": "OE19", "value": "< 5.00"}, {"measurement": "pIC50", "setting": "DMS273", "value": 5.04}]}]}
